Reference: PubChem BioAssay AID248 (DTP/NCI, 2004)
Toxic doses and inconclusive results are not listed. No stated cut-off is given here; in the data, active means T/C of 150% or more; inactive means T/C below 125%.

System: L1210 leukemia ip in BDF1 mice, survival T/C
Experiment: NCI In Vivo Anticancer Drug Screen. Data for tumor model L1210 Leukemia (intraperitoneal) in B6D2F1 (BDF1) mice
Settings: endpoint: mean survival time, higher = longer survival
In short: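 Antitumor effect is assessed in tumor-bearing animals. Survival in the compound arm is compared with a vehicle-dosed control arm and expressed as their quotient.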

[1] = dose: 100.0 mg/kg/injection, schedule: Q04DX002 (ip), vehicle: saline with Tween-80
[2] = dose: 50.0 mg/kg/injection, schedule: Q01DX001 (ip), vehicle: saline
[3] = dose: 100.0 mg/kg/injection, schedule: Q01DX001 (ip), vehicle: saline
[4] = dose: 200.0 mg/kg/injection, schedule: Q01DX001 (ip), vehicle: saline
[5] = dose: 400.0 mg/kg/injection, schedule: Q01DX001 (ip), vehicle: saline
[6] = dose: 100.0 mg/kg/injection, schedule: Q01DX009 (ip), vehicle: Klucel (hydroxypropylcellulose) (HPC)
[7] = dose: 200.0 mg/kg/injection, schedule: Q01DX009 (ip), vehicle: Klucel (hydroxypropylcellulose) (HPC)
[8] = dose: 400.0 mg/kg/injection, schedule: Q01DX009 (ip), vehicle: Klucel (hydroxypropylcellulose) (HPC)

Measured: T/C

COC(=O)c1ccccc1N(C)C(=O)c1cc(OC)c(OC)c(OC)c1
inactive: [1] 108 % of control | dose: 200.0 mg/kg/injection, schedule: Q04DX002 (ip), vehicle: saline with Tween-80 94 % of control | dose: 400.0 mg/kg/injection, schedule: Q04DX002 (ip), vehicle: saline with Tween-80 91 % of control

O=P1(Nc2ccccc2)OCCCN1Cc1ccc(Cl)c(Cl)c1 (configuration not stated)
inactive: [2] 96 % of control | [3] 102 % of control | [4] 90 % of control | [5] 102 % of control

O=C(Cl)C(c1ccccc1)C1(C(Cl)(Cl)Cl)CCCCC1 (configuration not stated)
inactive: dose: 55.0 mg/kg/injection, schedule: Q01DX Z (ip), vehicle: methylcellulose (MC) 110 % of control | dose: 83.0 mg/kg/injection, schedule: Q01DX Z (ip), vehicle: methylcellulose (MC) 104 % of control | dose: 125.0 mg/kg/injection, schedule: Q01DX Z (ip), vehicle: methylcellulose (MC) 98 % of control

CCOC(=O)CC(N)CC(=O)OCC
inactive: [3] 104 % of control | [4] 104 % of control | [5] 106 % of control

O=C(SSC(=O)c1ccccc1)c1ccccc1
inactive: dose: 50.0 mg/kg/injection, schedule: Q01DX001 (ip), vehicle: carboxymethylcellulose (CMC) 96 % of control | dose: 100.0 mg/kg/injection, schedule: Q01DX001 (ip), vehicle: carboxymethylcellulose (CMC) 94 % of control | dose: 200.0 mg/kg/injection, schedule: Q01DX001 (ip), vehicle: carboxymethylcellulose (CMC) 90 % of control | dose: 400.0 mg/kg/injection, schedule: Q01DX001 (ip), vehicle: carboxymethylcellulose (CMC) 107 % of control

NC(=O)NC(=O)NC(N)=O
inactive: dose: 100.0 mg/kg/injection, schedule: Q04DX002 (ip), vehicle: Klucel (hydroxypropylcellulose) (HPC) 94 % of control | dose: 200.0 mg/kg/injection, schedule: Q04DX002 (ip), vehicle: Klucel (hydroxypropylcellulose) (HPC) 102 % of control | dose: 400.0 mg/kg/injection, schedule: Q04DX002 (ip), vehicle: Klucel (hydroxypropylcellulose) (HPC) 102 % of control

Cc1ccc([N+](=O)[O-])cc1NC(=O)Nc1cccc(O)c1
inactive: [6] 95 % of control | [7] 86 % of control | [8] 93 % of control

CCCCCCC(O)CCCCCCCCCCCO (configuration not stated)
inactive: [6] 108 % of control | [7] 97 % of control | [8] 103 % of control

O=C(Nc1ccc([N+](=O)[O-])cc1)OCC#CC#CCOC(=O)Nc1ccc([N+](=O)[O-])cc1
inactive: dose: 50.0 mg/kg/injection, schedule: Q01DX009 (ip), vehicle: Klucel (hydroxypropylcellulose) (HPC) 104 % of control | [6] 100 % of control | [7] 86 % of control

COc1cc(/C=C(/C)[N+](=O)[O-])c([N+](=O)[O-])cc1OC
inactive: [3] 98 % of control | [4] 90 % of control

CC1=C(Br)C(=O)C(Br)=C(Br)C1=O
inactive: dose: 100.0 mg/kg/injection, schedule: Q04DX003 (ip), vehicle: acetone 96 % of control

COc1ccc(NCC(O)CN2CCCC2)cc1 (configuration not stated)
inactive: [3] 112 % of control | [4] 104 % of control

CCOC(=O)C1C(c2ccccc2)C1c1ccc(C)cc1 (configuration not stated)
inactive: dose: 25.0 mg/kg/injection, schedule: Q04DX002 (ip), vehicle: saline with Tween-80 103 % of control | dose: 50.0 mg/kg/injection, schedule: Q04DX002 (ip), vehicle: saline with Tween-80 103 % of control | [1] 98 % of control

CCOC1(OCC)C([N+](=O)[O-])=CC(=[N+]([O-])O)C=C1[N+](=O)[O-]
inactive: [2] 102 % of control | [3] 98 % of control | [4] 98 % of control | [5] 101 % of control

CC(=O)SCCNCCNC1CC2CCC1C2 (configuration not stated)
inactive: dose: 1.25 mg/kg/injection, schedule: Q01DX009 (ip), vehicle: saline 94 % of control | dose: 2.5 mg/kg/injection, schedule: Q01DX009 (ip), vehicle: saline 97 % of control | dose: 5.0 mg/kg/injection, schedule: Q01DX009 (ip), vehicle: saline 100 % of control | dose: 7.2 mg/kg/injection, schedule: Q01DX009 (ip), vehicle: saline 94 % of control | dose: 10.0 mg/kg/injection, schedule: Q01DX001 (ip), vehicle: saline 92 % of control | dose: 10.0 mg/kg/injection, schedule: Q04DX003 (ip), vehicle: saline 99 % of control | dose: 11.0 mg/kg/injection, schedule: Q01DX009 (ip), vehicle: saline 92 % of control | dose: 16.5 mg/kg/injection, schedule: Q01DX009 (ip), vehicle: saline 90 % of control | dose: 20.0 mg/kg/injection, schedule: Q01DX001 (ip), vehicle: saline 90 % of control | dose: 23.0 mg/kg/injection, schedule: Q01DX009 (ip), vehicle: saline 88 % of control | dose: 40.0 mg/kg/injection, schedule: Q01DX001 (ip), vehicle: saline 95 % of control
